Measured values reported in paper PMC9056410, “14-Residue peptaibol velutibol A from Trichoderma velutinum: its structural and cytotoxic evaluation” (RSC Advances, 2020).
Converted amounts (≈) assume the structure as drawn. Like-named read-outs stand apart in the source and are kept apart here. Where a SMILES comes first, the peptide text is derived from it. [ ]: non-standard residue; d: D form. Leu(ol) = CC(C)C[C@H](N)CO; Aib = CC(C)(N)C(=O)O

Legend:
M. tuberculosis H37Rv [1] = experiment: microbe, parasite or virus in culture; settings: Mycobacterium tuberculosis, read-out: Minimum Inhibitory Concentration (MIC)
HL-60 cells [2] = experiment: Cell cycle analysis, propidium iodide staining, flow cytometry; format: cell-based, human; settings: 24 h, PI staining
Procedure: (§1) The cytotoxicity testing of compound 1 was performed against various cell lines, which includes human lung cancer (A549), human colon cancer (LS-180), human myeloid leukemia (HL-60) and human breast cancer (MDA-MB-231) using MTT (3-(4,5-dimethylthiazole-2-yl)-2,5-diphenyltetrazolium bromide). Herein, paclitaxel was used as positive control for cytotoxic assay. […] Further, the cell-cycle assay was performed on HL-60 cell lines. The compound 1 was treated against HL-60 cells at concentrations 5, 10, 20 and 30 μM and incubated for 24 h. […] Apoptotic bodies are small DNA fragments wrapped around the single membrane vesicles mainly formed when cells undergo apoptosis. These apoptotic bodies can be visualized under a fluorescent microscope by using DNA staining dyes such as 4′,6-diamidino-2-phenylindole (DAPI). The HL-60 cells were incubated with the compound 1 at different concentrations (5, 10, 20 and 30 μM) for 24 h. […] The % apoptosis is also represented graphically in Fig. 7.
The cell cycle phase distribution analysis in HL-60 cells was carried out by propidium iodide (PI) staining. The HL-60 cells were treated with different concentration (5, 10, 20 and 30 μM) of 1. After 24 h, the cells were centrifuged and collected at 400 × g and washed two times with PBS followed by fixing with ice-cold ethanol (70%). It was incubated overnight at 4 °C. Next day, cells were centrifuged at 4000 rpm, collected and washed with PBS followed by incubation with RNase (0.2 mg mL^−1) for 90 min at 37 °C. It was then stained with PI (10 μg mL^−1) and kept for 30 min in dark. The analysis of cells were carried out through flow-cytometer (FACS Calibur, Becton Dickinson) using list mode on 10 000 events for FL2-A vs. FL2-W. The ModFit software was used for the calculation of fluorescence intensity of the sub-G1 cell fraction representing the apoptotic cell population.

M. tuberculosis H37Rv [3] = settings: 48 h
HL-60 cells [4] = experiment: Nuclear morphology, DAPI staining, fluorescence microscopy; format: cell-based, human; settings: HL-60, 5, 10, 20 and 30 μM, 24 h
Procedure: as §1
HL-60 cells were incubated with compound 1 in a 12 well plate. After 24 h, cells were centrifuged at 400 × g, collected and washed two times with PBS. The cells were fixed using 1 mL solution of cold acetic acid in methanol (1 : 3) and incubated overnight at 4 °C. Further, the cells were centrifuged at 400 × g, collected and re-suspended in fixing solution (100 μL). […]

[5] = test system: human breast cancer (MDA-MB-231); experiment: cells; format: cell-based; settings: MTT, mean ± SD of three experiments, read-out: IC50 ± standard deviation
Procedure: as §1
(§2) The cytotoxic effect of compound 1 on cancer cells was assayed by using MTT dye. The HL-60 cell lines were seeded for 4 h in round bottom 96 well plates. It was then treated with different concentrations of compound 1 dissolved in DMSO and incubated for 48 h. With 3 h earlier to experiment termination, the MTT dye (20 μL) from the stock solution of 2.5 mg mL^−1 was added to each well. The MTT-formazan crystals thus formed were dissolved in DMSO (160 μL) and observed at 570 nm. The untreated control culture was treated with DMSO (<0.2%).

human lung cancer (A549) = experiment: cells; format: cell-based; settings: MTT, mean ± SD of three experiments, read-out: IC50 ± standard deviation
Procedure: as §1, §2

[6] = test system: human colon cancer (LS-180); experiment: cells; format: cell-based; settings: mean ± SD of three experiments, read-out: IC50 ± standard deviation
Procedure: as §1, §2

[7] = test system: human myeloid leukemia (HL-60); experiment: cells; format: cell-based; settings: MTT, mean ± SD of three experiments, read-out: IC50 ± standard deviation
Procedure: as §1, §2

[8] = 48 h incubation, read at 570 nm

**Q.** With CO[C@H]1/C=C/O[C@@]2(C)Oc3c(C)c(O)c4c(O)c(c(/C=N/N5CCN(C)CC5)c(O)c4c3C2=O)NC(=O)/C(C)=C\C=C\[C@H](C)[C@H](O)[C@@H](C)[C@@H](O)[C@@H](C)[C@H](OC(C)=O)[C@@H]1C [Rifampicin] as the compound, how does the MIC (M. tuberculosis H37Rv [1]) read?
**A.** 0.06 µg/mL (≈ 0.0729 µM)

**Q.** How did the “Apop (apoptotic DNA population, sub-G1)” value (HL-60 cells [2]; HL-60, 10 μM) turn out when CC(=O)NC(C)(C)C(=O)N[C@@H](CCC(N)=O)C(=O)N[C@@H](CC(C)C)C(=O)NC(C)(C)C(=O)N1CCC[C@H]1C(=O)N[C@H](C(=O)N[C@@H](CC(C)C)C(=O)NC(C)(C)C(=O)N1CCC[C@H]1C(=O)NC(C)(C)C(=O)NC(C)(C)C(=O)NC(C)(C)C(=O)N1CCC[C@H]1C(=O)N[C@H](CO)CC(C)C)C(C)C [compound 1, Velutibol A] (Ac-[Aib]QL[Aib]PVL[Aib]P[Aib][Aib][Aib]P[Leu(ol)]) was run?
**A.** 70%

**Q.** What about the “Apop (apoptotic DNA population, sub-G1)” value (HL-60 cells [2]; HL-60, 20 μM) of the same compound?
**A.** 85%

**Q.** What about the “Apop (apoptotic DNA population, sub-G1)” value (HL-60 cells [2]; HL-60, 30 μM) of the same compound?
**A.** 99%

**Q.** And the “Minimum Inhibitory Concentration (MIC)” value (M. tuberculosis H37Rv [3])?
**A.** 32 µg/mL

**Q.** What about the “Formation of apoptotic bodies” value (HL-60 cells [4]) of the same compound?
**A.** increased in a dose-dependent manner

**Q.** And the IC50 [5, 8]?
**A.** 7 ± 0.2 µM

**Q.** What about the IC50 (human lung cancer (A549); [8]) of the same compound?
**A.** 23 ± 0.8 µM

**Q.** What about the IC50 ([6]; MTT, 48 h incubation, read at 570 nm) of the same compound?
**A.** 26 ± 1.1 µM

**Q.** And the IC50 [7, 8]?
**A.** 4000 ± 100 nM

**Q.** With CC(=O)O[C@H]1C(=O)[C@@]2(C)[C@H]([C@H](OC(=O)c3ccccc3)[C@]3(O)C[C@H](OC(=O)[C@H](O)[C@@H](NC(=O)c4ccccc4)c4ccccc4)C(C)=C1C3(C)C)[C@]1(OC(C)=O)CO[C@@H]1C[C@@H]2O [Paclitaxel, paclitaxel, reference compound] as the compound, how does the IC50 ([5]; Homo sapiens, positive control) read?
**A.** 0.0033 ± 0.0001 µM

**Q.** And the IC50 (human lung cancer (A549); Homo sapiens, positive control)?
**A.** 0.0062 ± 0.0001 µM

**Q.** And the IC50 ([6]; Homo sapiens, LS180, MTT, positive control)?
**A.** 0.0022 ± 0.0001 µM

**Q.** And the IC50 ([7]; Homo sapiens, positive control)?
**A.** 1.8 ± 0.1 nM
